Measurements reported in patent publication US20250064801A1, “USE OF 5-AMINO-2,3-DIHYDRO-1,4-PHTHALAZINEDIONE IN THE TREATMENT OF CONGENITAL MUSCULAR DYSTROPHIES” (METROPHARM AG, priority 2022, published 2025).

Assays:
[1] = system: musculus extensor digitorum longus (EDL) muscle in the mdx mouse; test: Contractile properties (maximum force) of the musculus extensor digitorum longus measured in vitro at end of treatment of mdx mice; type: in vivo
Source text: The mdx mouse model is the most widely used and investigated animal model in the research of Duchenne muscular dystrophy since the early 1980ies. These mice are characterized by muscle weakness, histological evidence of myopathy and elevated serum levels of creatin kinase (CK) (cf. Bulfield et al. (1984) PNAS 81: 1189-1192). Herein, CK levels are a marker of the breakdown of CK-rich tissues such as skeletal muscles (rhabdomyolysis). The mutation in the mdx mouse is a nonsense mutation (C-to-T transition) in exon 23 that aborts full-length dystrophin expression (cf. Sicinski et al. (1989) Science 244: 1578-1580). Symptoms are moderate and the mean lifespan is reduced by about 25%. During the first two weeks after birth mdx mice are indistinguishable from wild-type mice. Then skeletal muscle necrosis starts until week 6 after birth and thereupon enters in a plateau phase characterized by muscle hypertrophy. […] Many aged mdx mice develop spontaneous sarcoma.
Mice were identified by ear tags. […] These cages were assigned randomly to treatment groups. Animals were monitored daily for changes in behavior.
The experiments were carried out by AGADA Biosciences (Halifax, Canada) on behalf of the applicant. All treatment substances were provided by the applicant. All treatment groups started with 15 mice. Treatment was blinded.
Contractile properties were measured in vitro on the right musculus extensor digitorum longus (EDL) at the end of the study. The mice were anesthetized using ketamine and xylamine. The EDL muscle of the right hindlimb was removed from each mouse and immersed in individual carbogenated baths (95% O2, 5% CO2) containing Ringer's solution (pH 7.4) at 25° C. The muscle was flanked by two electrodes. Using non-fatiguing twitches, the muscle was maintained at 10 mN for force generation. The maximal force was measured with the muscle held at 10 mN. The muscle was stimulated with an electrode to elicit tetanic contractions that are separated by 2-minute rest intervals. […] This plateau was considered the maximum force (mN) generated by the muscle. The cross-sectional area of the muscle was measured based on muscle mass, muscle length, and tissue density. Finally, the muscle specific force (kN/m^2) was calculated based on the cross-sectional area of the muscle and was converted in relation to the individual body weight ([…]).

[2] = Body weight of mdx mice measured weekly over the treatment period; details: 1.0 mg/kg (prednisolone oral syrup, deflazacort IP)
Method: Animals were received in 2 cohorts (n=49-56; 7-8 per group). Mice were sorted into a total of five treatment groups. The mice of the control groups were wild type C57BL/10ScSnJ and the dmx strain C57BL/10ScSn-Dmdmdx/J. The animals were acclimatized upon arrival to the animal facility for 7 days, housed in cages with up to 5 mice per cage. During the study, 12-hour light/11-hour dark cycles were maintained. Room temperature was maintained between 20° C. and 23° C. Food and water were available ad libitum for the duration of the study. Mice were identified by ear tags. Randomization was done based on the average body weight of the cage. These cages were assigned randomly to treatment groups. Animals were monitored daily for changes in behavior. […]
All treatment compounds were administered via intraperitoneal (IP) injection, with exception of prednisolone that was delivered via oral syrup. […] Once the injection was delivered, the mouse was monitored for a couple of minutes for any adverse side effects. […] Once the complete treatment was delivered the mouse was placed back into its cage and monitored for a couple of minutes for any adverse side effects.
The body weight was measured weekly starting after acclimation of the animals to the facility and the beginning of the treatment (5 weeks of age). […]

[3] = mdx mice, 1.0 mg/kg (prednisolone oral syrup, deflazacort IP)
[4] = mdx mice, 1.0 mg/kg (prednisolone oral syrup, deflazacort IP), right EDL in Ringer's solution 25° C., mean ±SEM

Structure (SMILES) | percentual improvement of maximum force in comparison to the untreated mdx mice control group (set as 100%) [1, 3] [%] | maximum force generated by the muscle (EDL), related to body weight [1, 4] [mN/kg] | dose dependence of the maximum force generated by the muscle ([1]; mouse, in vivo) | maximum force generated by the muscle (EDL), related to body weight ([1]; mouse, in vivo, ip, 5 mg/kg) [mN/kg] | percentual improvement of maximum force in comparison to the untreated mdx mice control group (set as 100%) ([1]; mouse, in vivo, ip, 5 mg/kg) [%] | difference in body weight (diminished increase) ([2]; from about week 6) | body weight increase over the treatment ([2]; weeks of age 5-10, starting at about week 6)
CC(=O)OCC(=O)[C@@]12N=C(C)O[C@@H]1C[C@H]1[C@@H]3CCC4=CC(=O)C=C[C@]4(C)[C@H]3[C@@H](O)C[C@@]12C [deflazacort] | 6.2 | 96.8±5.2 |  |  |  |  | 
Nc1cccc2c(=O)[nH][nH]c(=O)c12.[Na] [5-amino-2,3-dihydro-1,4-phthalazinedione sodium salt] |  |  | dose-dependent improvement | 106.1±8.0 | 16.4 |  | 
C[C@]12C=CC(=O)C=C1CC[C@@H]1[C@@H]2[C@@H](O)C[C@@]2(C)[C@H]1CC[C@]2(O)C(=O)CO [prednisolone] | 18.0 | 107.5±7.2 |  |  |  | about 7% | significantly diminished body weight increase
